Laboratory results reported in publication PMC10319809, “Chronic UCN2 treatment desensitizes CRHR2 and improves insulin sensitivity” (Nature Communications, 2023).
“And” between values parts separate entries of the source, which are not always exact repeats. Equal values may be shown once. Where no end group is shown, it is not given here.

Key:
HA-tagged CRHR2a = molecular target: T1, HA-tagged CRHR2a (Homo sapiens, UniProt Q13324); assay: CRHR2 surface expression / internalization, confocal imaging of HEK293 cells with HA-tagged CRHR2a; format: cell-based; details: 100 nM UCN2, HEK cells with HA-tagged CRHR2a; n = 4
T1 construct: expressed in transfected cells; host or cells: HEK293 cells, transient transfection with pcDNA3.1(+) plasmid using Lipofectamine 3000
T1 sequence (Q13324 1-411): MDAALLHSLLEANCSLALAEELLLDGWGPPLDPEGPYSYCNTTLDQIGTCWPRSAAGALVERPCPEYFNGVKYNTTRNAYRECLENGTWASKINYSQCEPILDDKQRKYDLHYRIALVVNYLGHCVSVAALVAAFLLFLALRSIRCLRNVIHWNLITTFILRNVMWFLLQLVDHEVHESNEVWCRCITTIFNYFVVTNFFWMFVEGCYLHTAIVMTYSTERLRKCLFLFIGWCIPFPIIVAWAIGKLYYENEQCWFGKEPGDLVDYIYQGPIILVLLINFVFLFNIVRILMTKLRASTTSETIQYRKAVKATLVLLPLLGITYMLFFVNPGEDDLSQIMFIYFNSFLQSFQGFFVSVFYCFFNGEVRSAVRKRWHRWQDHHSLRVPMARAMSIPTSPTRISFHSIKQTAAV
Experimental: β-Arrestin recruitment can sometimes cause the internalization of the receptor to which it is recruited. To assess whether CRHR2 is internalized following UCN2 treatment, we quantified CRHR2 receptor surface expression using confocal imaging of HEK cells transiently transfected with a plasmid expressing a […] CRHR2a construct (Fig. S3). Cells were treated with saline or 100 nM (−7.0 log[M]) UCN2 and surface expression was determined by fluorescent anti-HA antibody-binding, with and without permeabilizing the cell.
HEK293 cells were plated at a density of 10,000 cells per well into tissue culture-treated clear bottomed, optical microscopy quality, 96 well plates (Perkin Elmer, PhenoPlate 96-well) and grown for 1 day to ~40–60% confluency. Twenty-four hours after plating, cells were transfected with 50 ng of pcDNA3.1(+) plasmid encoding a N-terminally tagged CRHR2α construct using Lipofectamine 3000 (Thermofisher) following manufacturing protocols. Twenty-four hours following transfection, agonists were then added for 30 min and cells were incubated at 37 °C. Prior to imaging, cells were washed once with PBS and fixed with ice-cold 4% paraformaldehyde in PBS for 15 min. After washing 3 times with PBS, cells were kept in the Alexa Fluor 647 anti-HA (1:2000 dilution, BioLegend cat# 682404) diluted in 5% normal goat serum in PBS. […]

[1] = system: heart, white adipose tissue; assay: In vivo glucose uptake, fluoro-deoxyglucose (FDG), heart and subcutaneous white adipose tissue; set-up: species or system mouse; details: for Glucose Uptake Rate, subcutaneous white adipose tissue (FDG): individual animals (Fig. 2H), 1 mg/kg
Experimental: Mice were fasted 5 h, dosed IP with 1 mg/kg UCN2 or vehicle. 20 min after dosing mice were injected with 2 mg/kg fluoro-deoxyglucose (FDG) +/− 0.75 IU insulin via tail vein. 15 min after the FDG dose animals were anesthetized and tissues and blood were collected and snap frozen. Plasma and tissues were analyzed for FDG, FDG-monophosphate, glucose, and glucose-monophosphate. The quantification of the analytes was performed by liquid chromatography tandem mass spectrometry (LC-MS/MS) using selected reaction monitoring (SRM) on an Applied Biosystems SCIEX (Framingham, MA, USA) 5500 QTrap mass spectrometer operated in negative ionization mode. Chromatography was achieved on a Shimadzu (Kyoto, Japan) HPLC system under reversed phase LC conditions with gradient elution. Calibration standards were prepared in analyte-free matrix, while quality control samples were prepared in pooled tissue homogenate by standard addition. Experimental tissue samples were mechanically homogenized in a methanol solution followed by evaporation under nitrogen and resuspension with injection solvent prior to analysis on the LC-MS/MS system.

WT animals = assay: Blood glucose and plasma insulin 15 min after intraperitoneal UCN2; format: in vivo, mouse; details: 1 mg/kg IP, 15 min post-dose; n = 5
Experimental: WT animals were injected IP with 1 mg/kg recombinant UCN2 or an equivalent volume of saline. Blood glucose and plasma insulin measurements were made pre-injection and 15 min post-dose. 20 min after the injection animals were euthanized and gastrocnemius muscle was dissected and snap-frozen in liquid nitrogen. The tissue was pulverized and homogenized in 700 ul SDS-buffer (0.1 M Tris/HCl 7.6, 4% SDS, 0.1 mM DTT), heated for 5 min at 95 °C and sonicated (Bioruptor®Plus Diagenode, 30 sec on-30sec off cycle for 10 cycles). After centrifugation for 10 min at 10,000 x g at 15 °C, the proteins in the supernatant were precipitated with 4X (volumes) ice-cold acetone (−20 °C) and stored at −20 °C overnight. The precipitates were centrifuged for 15 min at 10,000 × g, acetone was decanted, and the resulting pellets were dried for 10 min at room temperature. The pellet was resuspended in 500ul denaturing buffer (8 M urea and 10 mM Tris, pH 8.5) and sonicated (Bioruptor®Plus Diagenode, 30 s on-30 s off cycle for 5 cycles). The protein concentration was determined with a Bradford assay (Bio-Rad, Hercules, CA, USA). The proteins were reduced with dithiothreitol (DTT) 5 mM final concentration for 60 min at 37 °C and alkylated with iodoacetamide (8 mM final concentration) for 45 min at RT in the dark. […]

IVLSLDVPIGLLQILLEQARARAAREQATTNARILARVGHC-NH2 (C-terminus assumed) [UCN2, Urocortin 2]
CRHR2 internalization / surface receptor expression (HA-tagged CRHR2a): increase of CRHR2 internalization and decreased surface receptor expression
insulin-stimulated glucose uptake in heart, WAT and SKM in vivo ([1]; 1 mg/kg IP UCN2, SKM by [3H]2DG): decreased insulin-stimulated glucose uptake
Glucose Uptake Rate, subcutaneous white adipose tissue (FDG) ([1]; UCN2 1 mg/kg IP +Insulin 0.75 IU): 0.1568 ng/g tissue/min and 0.1229 ng/g tissue/min and 0.1122 ng/g tissue/min and 0.1603 ng/g tissue/min and 0.108 ng/g tissue/min and 0.2201 ng/g tissue/min and 0.1273 ng/g tissue/min and 0.0896 ng/g tissue/min
Glucose Uptake Rate, subcutaneous white adipose tissue (FDG) ([1]; UCN2 1 mg/kg IP +Veh (no insulin)): 0.0619 ng/g tissue/min and 0.036 ng/g tissue/min and 0.07045 ng/g tissue/min and 0.06392 ng/g tissue/min and 0.06486 ng/g tissue/min and 0.04044 ng/g tissue/min and 0.02401 ng/g tissue/min and 0.1458 ng/g tissue/min
blood glucose levels after injection (WT animals): significantly increased blood glucose levels
plasma insulin after injection (WT animals): no significant difference
